# In article PMC10110893, “[…]-derived synthetic cannabinoids inhibit T-type calcium channels with divergent effects on seizures in rodent models of epilepsy” (Frontiers in Physiology, 2023):
# Like-named read-outs stand apart in the source and are kept apart here.
# Assays:
# [1] = target: T1, human Cav3.3 (Homo sapiens, UniProt Q9P0X4); test: FLIPR calcium flux assay, Cav3.3; type: cell-based
# T1 construct: expressed in transfected cells; host or cells: HEK293 FlpIn T-Rex cells (Invitrogen)
# Protocol: (§1) HEK293 FlpIn T-Rex cells (Invitrogen, CA, United States) stably expressing human Cav3.1, Cav3.2, or Cav3.3 were maintained in Dulbecco’s Modified Eagle Medium (DMEM) supplemented with 10% foetal bovine serum (FBS), 1% penicillin-streptomycin (P/S) at 37°C, and 5% CO2 as previously described ([Bladen et al., 2021]; [Udoh et al., 2022]). Hygromycin (80 μg/mL) and blasticidin (15 μg/mL) were used as selection antibiotics and cells were passaged at 80% confluency. For experiments, cells were resuspended in Leibovitz’s L-15 media (containing 1% FBS, 1% P/S, 15 mM glucose, 2 μg/mL tetracycline), plated in black, clear-bottomed poly-D-lysine-coated 96-well plates (90 μL) (Corning, NY, United States), and incubated overnight in ambient air at 37°C. All compounds tested in cellular assays were prepared as stock solutions in DMSO and final DMSO concentration was 0.1%.
# (§2) Intracellular calcium flux was measured using a fluorometric imaging plate-reader (FLIPR) Calcium 5 Assay Kit and FlexStation 3 Microplate Reader (Molecular Devices, San Jose, United States). Calcium 5 dye (90 μL) prepared in low potassium HBSS (Thermo Fisher Scientific) containing (in mM) 145 NaCl, 22 HEPES, 0.338 Na2HPO4, 4.17 NaHCO3, 0.441 KH2PO4, 0.407 MgSO4, 0.493 MgCl2, 1.26 CaCl2, 5.56 glucose, and […] with pH 7.4 was applied to each well and incubated for 1 h at 37°C, ambient air prior to testing.
# (§3) Fluorescence readings were taken at 2 s intervals (λ excitation = 485 nm, λ emission = 525 nm). Following 2 min baseline reading, 20 μL of SB2193, SB2193F, or NNC 55-0396 (10 nM—10 μM) was added to cells and read for 5 min, then CaCl2 (10 mM) was added and read for 3 min. Baseline fluorescence averaged over the 20 s interval preceding CaCl2 addition was subtracted and normalized to the vehicle response. Changes in fluorescence were measured in relative fluorescence units (RFU). All compounds were assayed in ≥ five independent experiments (n = 5–8) performed in duplicate. Order of compound addition and location on the plate were varied between replicates. Data was fit to a four-parameter non-linear dose-response curve using GraphPad Prism 8.2.0 software (La Jolla, United States) to determine IC50 values.
# [2] = target: T2, human Cav3.1 (Homo sapiens, UniProt O43497); test: FLIPR calcium flux assay, Cav3.1; type: cell-based
# T2 construct: expressed in transfected cells; host or cells: HEK293 FlpIn T-Rex cells (Invitrogen)
# T2 sequence (O43497 whole entry): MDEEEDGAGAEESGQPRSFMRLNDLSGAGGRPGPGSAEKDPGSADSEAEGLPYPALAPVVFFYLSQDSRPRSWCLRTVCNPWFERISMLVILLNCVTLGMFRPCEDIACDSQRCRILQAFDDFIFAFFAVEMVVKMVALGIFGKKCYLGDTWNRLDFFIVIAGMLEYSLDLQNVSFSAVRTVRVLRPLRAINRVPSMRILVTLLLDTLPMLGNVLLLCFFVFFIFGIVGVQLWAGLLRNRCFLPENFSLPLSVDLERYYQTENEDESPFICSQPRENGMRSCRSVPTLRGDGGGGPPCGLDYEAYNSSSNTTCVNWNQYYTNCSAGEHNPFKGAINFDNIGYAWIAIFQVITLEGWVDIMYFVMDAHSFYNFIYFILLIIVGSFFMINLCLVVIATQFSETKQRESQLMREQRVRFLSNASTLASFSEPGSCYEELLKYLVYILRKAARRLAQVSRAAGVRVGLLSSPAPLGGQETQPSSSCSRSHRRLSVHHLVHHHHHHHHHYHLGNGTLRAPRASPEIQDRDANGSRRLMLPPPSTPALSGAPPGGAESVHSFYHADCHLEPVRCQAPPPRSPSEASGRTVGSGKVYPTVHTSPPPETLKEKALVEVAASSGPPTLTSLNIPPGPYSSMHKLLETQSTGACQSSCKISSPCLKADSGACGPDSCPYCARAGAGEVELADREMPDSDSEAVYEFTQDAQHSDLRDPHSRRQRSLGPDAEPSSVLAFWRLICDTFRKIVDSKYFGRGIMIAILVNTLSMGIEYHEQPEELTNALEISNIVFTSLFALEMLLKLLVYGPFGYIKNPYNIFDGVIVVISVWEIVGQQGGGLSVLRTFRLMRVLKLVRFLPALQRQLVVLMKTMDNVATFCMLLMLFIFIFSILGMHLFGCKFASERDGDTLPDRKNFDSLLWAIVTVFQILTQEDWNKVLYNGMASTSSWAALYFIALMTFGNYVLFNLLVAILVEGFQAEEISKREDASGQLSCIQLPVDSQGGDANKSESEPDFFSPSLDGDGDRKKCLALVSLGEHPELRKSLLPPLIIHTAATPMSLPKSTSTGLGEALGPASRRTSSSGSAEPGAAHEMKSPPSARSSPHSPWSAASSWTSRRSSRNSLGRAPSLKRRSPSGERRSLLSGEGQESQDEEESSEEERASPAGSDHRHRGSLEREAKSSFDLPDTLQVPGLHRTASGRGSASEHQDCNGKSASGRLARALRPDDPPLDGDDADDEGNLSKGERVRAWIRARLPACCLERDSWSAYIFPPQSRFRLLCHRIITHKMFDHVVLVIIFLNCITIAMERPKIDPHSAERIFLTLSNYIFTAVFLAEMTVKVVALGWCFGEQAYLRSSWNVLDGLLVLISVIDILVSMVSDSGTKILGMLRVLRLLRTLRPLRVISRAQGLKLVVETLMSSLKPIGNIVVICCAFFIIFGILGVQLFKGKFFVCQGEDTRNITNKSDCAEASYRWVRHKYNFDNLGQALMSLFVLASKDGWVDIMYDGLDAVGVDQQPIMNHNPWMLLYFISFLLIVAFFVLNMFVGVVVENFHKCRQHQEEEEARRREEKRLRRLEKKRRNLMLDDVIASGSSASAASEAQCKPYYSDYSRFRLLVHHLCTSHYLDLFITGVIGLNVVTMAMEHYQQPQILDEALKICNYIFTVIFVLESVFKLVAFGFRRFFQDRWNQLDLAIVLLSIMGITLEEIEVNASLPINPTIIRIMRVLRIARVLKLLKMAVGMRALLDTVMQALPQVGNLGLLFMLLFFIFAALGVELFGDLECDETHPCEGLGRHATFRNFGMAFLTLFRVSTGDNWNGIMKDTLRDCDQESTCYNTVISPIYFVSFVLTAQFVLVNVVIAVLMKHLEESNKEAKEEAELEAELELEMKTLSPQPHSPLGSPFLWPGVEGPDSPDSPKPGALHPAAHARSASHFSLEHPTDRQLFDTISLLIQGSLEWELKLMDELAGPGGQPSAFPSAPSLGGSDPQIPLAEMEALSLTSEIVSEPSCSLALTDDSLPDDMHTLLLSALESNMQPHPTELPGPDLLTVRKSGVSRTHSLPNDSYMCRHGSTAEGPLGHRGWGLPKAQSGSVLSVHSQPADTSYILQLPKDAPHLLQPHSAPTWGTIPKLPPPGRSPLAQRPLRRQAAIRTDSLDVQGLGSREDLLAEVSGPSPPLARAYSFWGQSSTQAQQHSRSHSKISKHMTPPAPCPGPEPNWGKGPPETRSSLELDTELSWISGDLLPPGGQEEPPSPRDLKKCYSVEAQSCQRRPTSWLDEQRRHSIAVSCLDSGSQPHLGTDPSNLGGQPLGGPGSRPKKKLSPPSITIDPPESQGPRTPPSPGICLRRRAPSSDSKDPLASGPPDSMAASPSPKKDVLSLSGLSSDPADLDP
# Protocol: as §1, §2, §3
# [3] = tested on: cannabinoid CB1 receptors; design: method as in Kevin et al., 2022; conditions: ref Kevin et al., 2022; cited from earlier work
# [4] = target: T3, human Cav3.2 (Homo sapiens, UniProt O95180); test: FLIPR calcium flux assay, Cav3.2; type: cell-based
# T3 construct: expressed in transfected cells; host or cells: HEK293 FlpIn T-Rex cells (Invitrogen)
# Protocol: Intracellular calcium flux was measured using a fluorometric imaging plate-reader (FLIPR) Calcium 5 Assay Kit and FlexStation 3 Microplate Reader (Molecular Devices, San Jose, United States). […]
# Fluorescence readings were taken at 2 s intervals (λ excitation = 485 nm, λ emission = 525 nm). […] Baseline fluorescence averaged over the 20 s interval preceding CaCl2 addition was subtracted and normalized to the vehicle response. Changes in fluorescence were measured in relative fluorescence units (RFU). […]
# [5] = Pharmacokinetics in mouse plasma and brain after single i.p. injection; type: in vivo; conditions: both sexes, 10 mg/kg i.p.; for Tmax / half-life / Cmax: wildtype F1, ip; for AUC: wildtype F1, mouse, 10 mg/kg
# Protocol: SB2193 and SB2193F were prepared in ethanol-Tween 80%–0.9% saline (1:1:18 ratio) and valproic acid in 0.9% saline. All doses were completely soluble in this vehicle except for the 100 mg/kg SB2193 dose, which was a suspension.
# Male and female wildtype F1 mice aged 21–28 days postnatal received a single i. p. injection of 10 mg/kg SB2193 or SB2193F. At selected timepoints (15–240 min), mice were anesthetised with isoflurane, blood was collected via cardiac puncture and whole brains were harvested. Brains were snap frozen on dry ice, and blood plasma was isolated via centrifugation (4,000 g for 10 min, 4^○C). Brain and plasma samples were stored at −80°C until assayed.
# Plasma samples (50 μL) were spiked with an internal standard (diazepam) and vortexed with 1 M NaOH (50 μL) and methyl tert-butyl ether (1 mL) to achieve protein precipitation. The organic layer was isolated by centrifugation (4,000 g for 3 min) before being frozen for 60 min at −80°C, evaporated to dryness using N2, and reconstituted in 30% acetonitrile and 0.1% formic acid in water for analysis. Brain hemispheres were homogenised in a 10x w/v 1:1 methanol-water solution using a Biospec Tissue-Tearor (Bartlesville, United States) and centrifuged at 20,000 g for 30 min at 4°C. Supernatant (100 μL) was collected and prepared following the same method as plasma.
# SB2193 and SB2193F concentrations in brain and plasma samples were assessed by high performance liquid chromatography-tandem mass spectrometry (HPLC-MS/MS) using a Shimadzu Nexera liquid chromatograph coupled with a Shimadzu 8,030 triple quadrupole mass spectrometer (Kyoto, Japan). Samples were run through a Zorbax C18 HPLC Column equipped with a Zorbax Eclipse XDB-C8 guard column (2.1 × 50 mm, 3.5 μm particle size; Agilent, Santa Clara, United States) with an injection volume of 10 μL using a gradient elution. Mobile phases of acetonitrile and 0.1% formic acid in water were delivered at a flow rate of 0.6 mL/min over 4.16 min, with a stepwise adjustment of mobile phase concentration gradient over time to optimise ion separation.
# Quantification was achieved by comparing experimental samples to plasma and brain standards prepared with known concentrations of SB2193 or SB2193F. Samples were quantified against a 7-point standard curve (R ^2 > 0.98 for both analytes).
# Concentrations of SB2193 or SB2193F in plasma and brain at each timepoint were averaged and concentration-time curves were generated using GraphPad Prism. Pharmacokinetic parameters were calculated using non-compartmental analysis. The linear-log trapezoidal method was used to calculate drug exposure (area under the curve, AUC) using equations previously described ([Hawkins et al., 2017]).
# [6] = tested on: T-type channels; design: method as in Kevin et al., 2022; conditions: single 10 μM concentration, FLIPR calcium flux and whole-cell patch clamp, ref Kevin et al., 2022; cited from earlier work
# [7] = tested on: 6 Hz-induced seizures in Swiss mice; design: method as in Barton et al., 2001; conditions: 6 Hz model, ref Barton et al., 2001; cited from earlier work
# [8] = tested on: 6 Hz-induced seizures in Swiss mice; test: 6 Hz seizure model in mice; type: in vivo, mouse; conditions: 300 mg/kg i.p., positive control, n = 10
# Protocol: Swiss outbred mice used in 6 Hz seizure experiments were purchased from Australian Resources Centre (stock ARC(S); Canning Vale, Australia) and single housed for 1 week prior to experimentation to prevent fighting.
# 6 Hz seizures were induced in Swiss male mice (9–10 weeks old) using an Ugo Basile electroconvulsive therapy unit (Model 57,800; Gemonio, Italy). Mice were pre-treated with vehicle, SB2193 (10 mg/kg, 30 mg/kg, 100 mg/kg) or valproic acid (300 mg/kg) via i.p. injection 15 min before seizure induction based on the time-to-peak brain concentration determined in pharmacokinetic studies. […] A drop of 0.5% tetracaine was applied to both corneas immediately following the i.p. injection to provide local anaesthesia. Immediately prior to the electrical stimulation, saline was applied to each cornea to ensure electrical conductivity. Corneal electroshocks were administered at 44 mA, 6 Hz, 3 s shock duration, with a […] rectangular pulse width. Mice were shocked and scored by an observer blinded to treatment for the presence of twitching of the vibrissae, stun, myoclonus, rearing, forelimb clonus, and/or Straub tail. […] The ED50 for SB2193 was calculated using computer-assisted log-probit linear regression analysis ([Litchfield and Wilcoxon, 1949]). A χ^2 test was performed to assess statistical significance.
# [9] = FLIPR calcium flux, HEK293 cells, n = 5–8
# T1 sequence (Q9P0X4 whole entry): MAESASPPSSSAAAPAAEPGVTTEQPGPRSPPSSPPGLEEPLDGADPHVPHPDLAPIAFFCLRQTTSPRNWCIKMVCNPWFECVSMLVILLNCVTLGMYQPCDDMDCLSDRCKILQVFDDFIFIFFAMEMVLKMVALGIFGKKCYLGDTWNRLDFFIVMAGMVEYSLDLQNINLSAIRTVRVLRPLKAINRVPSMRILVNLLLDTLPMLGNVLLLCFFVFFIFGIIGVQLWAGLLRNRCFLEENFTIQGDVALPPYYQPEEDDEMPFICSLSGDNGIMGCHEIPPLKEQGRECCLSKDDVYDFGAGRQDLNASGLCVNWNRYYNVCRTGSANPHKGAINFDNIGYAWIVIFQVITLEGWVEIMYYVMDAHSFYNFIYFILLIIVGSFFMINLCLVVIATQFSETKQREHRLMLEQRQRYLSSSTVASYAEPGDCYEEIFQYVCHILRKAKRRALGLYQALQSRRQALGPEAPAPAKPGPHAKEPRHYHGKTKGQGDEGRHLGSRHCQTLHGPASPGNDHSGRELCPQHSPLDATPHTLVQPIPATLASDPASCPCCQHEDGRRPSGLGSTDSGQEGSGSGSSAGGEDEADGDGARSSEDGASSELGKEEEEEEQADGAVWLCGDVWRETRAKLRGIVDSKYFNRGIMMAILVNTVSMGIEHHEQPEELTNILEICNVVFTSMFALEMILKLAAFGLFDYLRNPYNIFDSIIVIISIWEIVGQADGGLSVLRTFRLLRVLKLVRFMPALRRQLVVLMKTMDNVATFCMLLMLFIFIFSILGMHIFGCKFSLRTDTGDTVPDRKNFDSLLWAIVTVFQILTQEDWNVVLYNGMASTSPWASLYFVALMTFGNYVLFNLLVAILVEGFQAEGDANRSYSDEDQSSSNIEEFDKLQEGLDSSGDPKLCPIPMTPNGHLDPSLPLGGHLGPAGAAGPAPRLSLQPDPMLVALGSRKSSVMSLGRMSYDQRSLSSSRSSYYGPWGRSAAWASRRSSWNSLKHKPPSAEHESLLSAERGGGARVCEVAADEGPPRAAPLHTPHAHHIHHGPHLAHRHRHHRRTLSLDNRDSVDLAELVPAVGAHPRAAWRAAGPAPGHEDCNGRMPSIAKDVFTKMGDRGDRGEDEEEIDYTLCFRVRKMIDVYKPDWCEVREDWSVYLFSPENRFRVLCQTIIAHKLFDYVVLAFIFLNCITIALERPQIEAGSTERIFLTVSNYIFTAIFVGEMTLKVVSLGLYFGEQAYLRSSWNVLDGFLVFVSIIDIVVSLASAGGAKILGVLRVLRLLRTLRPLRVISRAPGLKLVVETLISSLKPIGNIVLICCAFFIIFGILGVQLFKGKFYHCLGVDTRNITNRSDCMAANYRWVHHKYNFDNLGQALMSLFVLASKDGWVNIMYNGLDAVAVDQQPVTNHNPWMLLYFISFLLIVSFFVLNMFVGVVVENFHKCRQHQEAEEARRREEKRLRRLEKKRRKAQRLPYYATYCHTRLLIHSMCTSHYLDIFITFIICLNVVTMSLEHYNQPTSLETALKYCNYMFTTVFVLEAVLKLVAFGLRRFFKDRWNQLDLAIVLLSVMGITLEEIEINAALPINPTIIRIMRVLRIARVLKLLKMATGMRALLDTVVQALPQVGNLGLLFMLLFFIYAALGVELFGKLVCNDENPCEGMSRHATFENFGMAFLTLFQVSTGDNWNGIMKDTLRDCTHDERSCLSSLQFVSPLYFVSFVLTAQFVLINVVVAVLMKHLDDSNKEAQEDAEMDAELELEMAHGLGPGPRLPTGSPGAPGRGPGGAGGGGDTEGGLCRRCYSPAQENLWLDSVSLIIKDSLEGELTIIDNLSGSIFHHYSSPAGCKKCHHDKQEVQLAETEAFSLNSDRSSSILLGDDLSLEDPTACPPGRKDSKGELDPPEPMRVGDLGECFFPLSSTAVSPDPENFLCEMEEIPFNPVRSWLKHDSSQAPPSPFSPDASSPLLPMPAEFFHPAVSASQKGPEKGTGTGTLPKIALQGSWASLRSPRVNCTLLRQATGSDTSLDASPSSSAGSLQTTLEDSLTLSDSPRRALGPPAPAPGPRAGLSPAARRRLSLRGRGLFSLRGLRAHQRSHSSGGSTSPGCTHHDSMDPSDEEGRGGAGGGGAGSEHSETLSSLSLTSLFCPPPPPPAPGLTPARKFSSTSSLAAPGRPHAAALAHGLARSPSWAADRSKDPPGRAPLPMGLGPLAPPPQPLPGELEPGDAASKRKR
smiles,measurement,setting,value
"CC(C)[C@H]1c2ccc(F)cc2CC[C@@]1(CCN(C)CCCc1nc2ccccc2[nH]1)OC(=O)C1CC1 [NNC 55-036, reference compound]",Cav3.3 pIC50,[1]; [9],5.9 ± 0.06
same,IC50,"[1]; FLIPR calcium flux, HEK293 cells, n = 5–8, read-out: Cav3.3 IC50",1200 nM
same,Cav3.1 pIC50,[2]; [9],5.9 ± 0.06
same,IC50,"[2]; FLIPR calcium flux, HEK293 cells, n = 5–8, read-out: Cav3.1 IC50",1300 nM
CC(C)(C)OC(=O)N1CCN(C(=O)c2cn(CCCCCF)c3ccccc23)CC1 [SB2193F],activity at cannabinoid CB1 receptors,[3],minimal activity
same,IC50,[1],8600 nM
same,IC50,[4],3160 nM
same,Kp,"[5]; wildtype F1, brain/plasma, ip, mouse, read-out: brain-plasma ratio",0.48
same,Tmax,[5]; mouse brain,≤ 15 min
same,half-life,[5]; mouse brain,14 min
same,Cmax,"[5]; mouse brain, read-out: Cmax",2300 ± 300 nM
same,Cmax,"[5]; mouse brain, read-out: Cmax (μg/mL)",0.97 ± 0.1 µg/mL
same,Tmax,[5]; mouse plasma,≤ 15 min
same,half-life,[5]; mouse plasma,23 min
same,Cmax,"[5]; mouse plasma, read-out: Cmax",3100 ± 700 nM
same,Cmax,"[5]; mouse plasma, read-out: Cmax (μg/mL)",1.3 ± 0.3 µg/mL
same,AUC,"[5]; brain, ip, mouse brain, brain concentration converted assuming density of 1 g/mL",350 ng·h/mL
same,AUC,"[5]; plasma, ip, mouse plasma",733 ng·h/mL
same,IC50,[2],2300 nM
same,inhibition of T-type channels,[6],strongly inhibit
CCC1(C)CC(=O)NC1=O (centres unmarked) [ethosuximide],ED50,[7],> 600 mg/kg
CCCCCn1cc(C(=O)N2CCN(C)CC2)c2ccccc21 [reference compound],activity at cannabinoid CB1 receptors,[3],minimal activity
"CCCC(CCC)C(=O)O [valproic acid, reference compound]",protection from seizures compared to vehicle,[8],significant protection
